{
  "source": "patent US20090326032A1",
  "about": "“PHARMACEUTICAL COMPOSITIONS COMPRISING NK1 RECEPTOR ANTAGONISTS AND SODIUM CHANNEL BLOCKERS” (GLAXO GROUP LIMITED, priority 2007, published 2009)",
  "key": {"[1]": {"system": "tonic hindlimb extensor seizures", "experiment": "threshold for tonic hindlimb extensor seizures, corneal electroshock, 'up and down' method (CC50)", "assay_type": "in vivo, rat", "conditions": "ENa7 3 mg/kg s.c. alone, male CD rats", "description": "This work was conducted in compliance with the Home Office Guidance on the operation of the Animals (Scientific Procedures) Act 1986 and GlaxoSmithKline ethical standards. Male CD rats (100-145 g) were supplied by Charles River, UK. Animals were group housed (6 animal per cage) with free access to food (Standard rodent chow; Harlan, UK) and water under a 12 h light/dark cycle (lights on at 0700 h). A period of at least one week between arrival at GSK and the study was allowed in all cases.\nAnimals were administered a test compound at the appropriate dose, route and pre-treatment time and returned to their home cage. Testing occurred in a separate room from that used for housing. […] Seizure threshold was determined using the ‘up and down’ method of Kimball et al. (1957)(Kimball A W, Burnett W T Jr, Doherty D G. (1957) Radiat Res. 7(1):1-12). […]\nAll doses were calculated as base. […]\nInduction of seizure is measured as an all-or-nothing effect scored as either present (+) or absent (0) for each animal. […] Drug effects were calculated as the % change in CC50. Significant differences between drug-treated animals and appropriate vehicle treated groups were assessed according to the methods of Litchfield and Wilcoxon (1949). […]"}, "[2]": {"experiment": "blood and brain drug concentrations in satellite animals", "assay_type": "in vivo, rat", "conditions": "for concentration at 60 min: CD, rat, intraperitoneal"}},
  "note": "Structures can show the parent of a compound that is named as a salt. Where two headings read alike, the source gives them in different places.",
  "data": [
    {"smiles": "CN1CC[C@]2(CC[C@H](c3ccc(OCc4ccccc4F)cc3)N2)C1=O.Cl", "note": "[ENa7, (2R,5R)-2-(4-{[(2-Fluorophenyl)methyl]oxy}phenyl)-7-methyl-1,7-diazaspiro[4.4]nonan-6-one hydrochloride]", "values": [
      {"measurement": "seizure threshold", "setting": "[1]", "value": "robust and significant increase"},
      {"measurement": "concentration of ENa7 in the presence of the NK1 antagonist", "setting": "[2]; blood and brain, with vs without ENK6 30 mg/kg", "value": "No increase"}
    ]},
    {"smiles": "COc1ccc(-n2nnnc2C(F)(F)F)cc1CN[C@H]1CCCN[C@H]1c1ccccc1", "note": "[ENK6, [2-Methoxy-5-(5-trifluoromethyl-tetrazol-1-yl)-benzyl]-([2S,3S]-2-phenyl-piperidin-3-yl)-amine dihydrochloride]", "values": [
      {"measurement": "concentration at 60 min", "setting": "[2]; blood, 30 mg/kg, ENK6 30 mg/kg, ENa7 veh, n = 1, read-out: Blood ENK6", "value": 558, "unit": "ng/mL"},
      {"measurement": "concentration at 60 min", "setting": "[2]; blood, ENK6 30 mg/kg + ENa7 1 mg/kg, n = 2, read-out: Blood ENK6", "value": 456, "unit": "ng/mL"},
      {"measurement": "concentration at 60 min", "setting": "[2]; blood, ENK6 30 mg/kg + ENa7 3 mg/kg, n = 2, read-out: Blood ENK6", "value": 1210, "unit": "ng/mL"},
      {"measurement": "concentration at 60 min", "setting": "[2]; brain, 30 mg/kg, ENK6 30 mg/kg, ENa7 veh, n = 1, read-out: Brain ENK6", "value": 1260, "unit": "ng/g"},
      {"measurement": "concentration at 60 min", "setting": "[2]; brain, ENK6 30 mg/kg + ENa7 1 mg/kg, n = 2, read-out: Brain ENK6", "value": 1040, "unit": "ng/g"},
      {"measurement": "concentration at 60 min", "setting": "[2]; brain, ENK6 30 mg/kg + ENa7 3 mg/kg, n = 2, read-out: Brain ENK6", "value": 4800, "unit": "ng/g"}
    ]}
  ]
}
